Experiment [1] addresses T1, 20S immuno-proteasomes from mouse B-cell line (RMA) (Mus musculus, UniProt O35955+P28063+P28076).
T1 construct: 20S immuno-proteasomes were purified from a mouse B-cell line (RMA); endogenous in cells; host or cells: RMA cells; 20S proteasome purified from them
Briefly: In vitro proteasome mediated digestion of 30-mers, mass spectrometry, immunoproteasome RMA. It is filed as biochemical. The following applies: 30 residue long precursor peptides. The gist of the method: (§1)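 30-mer peptides (20 μg) digested with 1 μg purified 20S proteasome (JY or RMA immunoproteasome, HeLa household proteasome) at 37° C for 1, 4 and 24 h, stopped with TFA. Nano-ESI Q-TOF MS; fragments quantified by peak intensity as percent of total digested peptide per time point; major cleavage site >1% within first hour.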

The target in experiment [2] is T2, 20S immuno-proteasomes from human B-LCL cell line (JY) (Homo sapiens, UniProt P28062+P28065+P40306).
T2 construct: purified from a mouse B-cell line (RMA) and a human B-LCL cell line (JY); endogenous in cells; host or cells: B-LCL JY cells; 20S proteasome purified from them
Put plainly: In vitro proteasome mediated digestion of 30-mers, mass spectrometry, immunoproteasome JY. It is filed as biochemical. The conditions noted are these: 30 residue long precursor peptides. The gist of the method: as §1

The target of experiment [3] is T3, 20S household proteasomes from human tumor cell line (HeLa) (Homo sapiens, UniProt P28072+P28074+Q99436).
T3 construct: 20S household proteasomes were purified from human tumor cell line (HeLa); endogenous in cells; host or cells: HeLa cells; 20S proteasome purified from them
Briefly: In vitro proteasome mediated digestion of 30-mers, mass spectrometry, household proteasome HeLa. The following applies: 30 residue long precursor peptides. The class given is biochemical. The method, boiled down:
as §1

For experiment [4], the target named is T4, HLA-A*0201 (Homo sapiens, UniProt P04439, D140Y/D185E/D98H/E176V/E277Q/G131W/G231S/I119V/I121R/I166T/I218V/L300P/L318F/N151K/N90K/P208A/P217A/Q86G/Q94H/R138H/R169H/T345S). The following applies: binding capacity previously determined, cited from earlier work.
The target of experiment [5] is T2, 20S immuno-proteasomes from human B-LCL cell line (JY). The following applies: PRAME peptides (Kessler J H et al 2001); cited from earlier work.
The target in experiment [6] is T4, HLA-A*0201. Briefly: Peptide stabilization for HLA-A*0201. The class given is binding. The following applies: HLA-A*0201; p53 peptides.
The subject of a further experiment is proteasome. Briefly: Proteasome processing, summarised over proteasome types (Table 5). The class given is biochemical. The following applies: 30 residue long precursor peptides. As to the method:
In the context of the invention, “being inefficiently processed by a proteasome” preferably means that within the first hour of digestion by a proteasome less than 1% of total digested peptide is found. The processing by a proteasome is preferably assessed by incubating a purified proteasome, more preferably a human proteasome with a peptide comprising the potential CTL epitope (30 amino acid length approximately) in a proteasome digestion buffer during at least one hour at 37° C. The reaction is subsequently stopped by adding trifluoroacetic acid. Analysis of the digested peptides is performed with electrospray ionization mass spectrometry (see example 1). Even more preferably, the human proteasome is an immunoproteasome from B-LCL JY cells (Kessler J H et al. 2001).
20S immuno-proteasomes were purified from a mouse B-cell line (RMA) and a human B-LCL cell line (JY) and 20S household proteasomes were purified from human tumor cell line (HeLa) as described (Kessler J H et al 2001). To assess kinetics, digestions were performed with different incubation periods as indicated. Briefly, peptides containing the (potential) CTL epitopes (30 mers, 20 μg) were incubated with 1 μg of purified proteasome at 37° C. for 1 h, 4 h and 24 h in 300 μl proteasome digestion buffer, trifluoroacetic acid (30 μl) was added to stop the digestion and samples were stored at −20° C. before mass spectrometric analysis. Electrospray ionization mass spectrometry was performed on a hybrid quadrupole time-of-flight mass spectromter, a Q-TOF (Micromass), equipped with an on-line nanoelectrospray interface with an approximate flow rate of […] as described (Kessler J H et al 2001). The peaks in the mass spectrum were searched in the digested precursor peptide using the Biolynx/proteins software (Micromass) supplied with the mass spectrometer. The intensity of the peaks in the mass spectra was used to establish the relative amounts of peptides generated after proteasome digestion. The relative amounts of the peptides are given as a percentage of the total amount of peptide digested by the proteasome at the indicated incubation time. Major cleavage sites are defined as more than >1% of total digested peptide within the first hour.

pIC50: −log10 of the molar value. Like-named read-outs stand apart in the source and are kept apart here.

Consider `CC(C)C[C@H](NC(=O)[C@@H](NC(=O)[C@H](Cc1ccccc1)NC(=O)[C@H](Cc1ccc(O)cc1)NC(=O)[C@H](CCC(=O)O)NC(=O)CNC(=O)[C@H](CC(=O)O)NC(=O)[C@H](CC(C)C)NC(=O)[C@@H]1CCCN1)[C@@H](C)O)C(=O)O` [p53 322-330], for which, in experiment [1], the “Proteasomal Cleavage of C-terminus, IP (RMA)” value is “+ (Major cleavage sites are defined as more than >1% of total digested peptide within the first hour)”. Moreover, the “Proteasomal Cleavage of C-terminus, IP (JY)” value in experiment [2] was “+ (Major cleavage sites are defined as more than >1% of total digested peptide within the first hour)”. The “Proteasomal Cleavage of C-terminus, HH (HeLa)” value in experiment [3] was “+ (Major cleavage sites are defined as more than >1% of total digested peptide within the first hour)”. The pIC50 on HLA-A*0201 [4] (read-out: Peptide Binding Affinity) was 4.82 to 5.30.

ALYVDSLFFL [PRA 300-309]: the “Proteasomal Cleavage of C-terminus, IP (JY)” value in experiment [5] is “+ (Major cleavage sites are defined as more than >1% of total digested peptide within the first hour)”.

Consider VLDGLDVLL [PRA 100-108], for which the “Proteasomal Cleavage of C-terminus, IP (JY)” value in experiment [5] is “+ (Major cleavage sites are defined as more than >1% of total digested peptide within the first hour)”.

SLYSFPEPEA [PRA 142-151]: in experiment [5], the “Proteasomal Cleavage of C-terminus, IP (JY)” value was “+ (Major cleavage sites are defined as more than >1% of total digested peptide within the first hour)”.

Regarding `CSCC[C@H](NC(=O)[C@@H](N)CCCNC(=N)N)C(=O)N1CCC[C@H]1C(=O)N[C@@H](CCC(=O)O)C(=O)N[C@@H](C)C(=O)N[C@@H](C)C(=O)N1CCC[C@H]1C(=O)N1CCC[C@H]1C(=O)N[C@H](C(=O)O)C(C)C` [p53 65-73], the “Peptide Binding Stability” value on HLA-A*0201 [6] is 6 h. The “Peptide Binding Affinity” value at HLA-A*0201 [4] was “high”. In the experiment on proteasome, the “generation / processing by household and immunoproteasomes, in words” value was “not/inefficiently processed”.

These data come from patent US8663646B2, “P53 peptide vaccine” (priority 2007, dated 2014).
